According to ChEMBL document CHEMBL3507680, “University of Dundee, Gates Library screen for HepG2 cell viability”:

Test: Human HepG2 cell viability assay in 384 well format
Format: toxicity, cell-based
Set-up: dose 125 nL, time 70.5 hour; concentration not given beside the values
Settings: HepG2 cells, read-out: Inhibition

SMILES	cytotoxicity at 70.5 h [%]
Cc1cccc(C2(C(=O)NC(C)Cn3ccnc3)CC2)c1 (stereo not drawn)	-8.86
Cc1c(-c2ccccc2)nc2c(c(C)c(C)n2CCN(C)C)c1N	13.6
CC(Nc1cccc(Oc2ccc(C#N)cn2)c1)C(=O)NC1CC1 (stereo not drawn)	-6.13
CN1CC2(CCN(C(=O)c3ccc4c(=O)n(C)cnc4c3)C2)OC1=O (stereo not drawn)	8.11
c1ccc(-n2ncc(CN3CCCC3Cn3cccn3)n2)cc1 (stereo not drawn)	-15.5
CC(=O)N1CCCC1(C)c1nc(C)no1 (stereo not drawn)	0.978
CCC(CC)CN1C[C@@H]2OCCN(Cc3cnn(C)c3)[C@@H]2C1	-3.01
CCNC(=O)NC(=O)CN1CCOC(c2cccc(Br)c2)C1 (stereo not drawn)	-8.56
Cc1nc(CNC(=O)CCN2CCN(c3ccccn3)CC2)oc1C	6.4
N#Cc1ccc(F)c(CN(CC(=O)N2CCCC2)CC2CCCO2)c1 (stereo not drawn)	0.0703
CN(Cc1c(F)cccc1Cl)C(=O)c1cnn(CCN2CCCCC2)c1	18.7
CN(C)c1ncc(-c2cc(C(=O)O)n(CC3CC3)c2)cn1	-4.19
CN(Cc1cc2n(n1)CCCNC2)Cc1ccno1	-5.8
CCOCC1CN(Cc2ccco2)Cc2ccnn2C1 (stereo not drawn)	-5.17
COc1cccc(Cl)c1C(C(=O)O)N1CCC(Cn2cccn2)CC1 (stereo not drawn)	17.9
c1cc(CN2CCCCC2c2ccc(Nc3cnccn3)nc2)ccn1 (stereo not drawn)	-4.05
CC(=O)N1CCC(N2CCOC[C@H]2c2nc(C(C)(C)C)c[nH]2)CC1	-2.09
CCOC(=O)[C@]12CCCN(Cc3ccco3)C[C@H]1CN(CCN(C)C)C2	-8.65
COc1cccc(C2CCCN2C(=O)NCCCn2cccn2)c1 (stereo not drawn)	-6.25
Cc1cnn(CC2CCCN2C(=O)c2ccc(C(N)=O)cn2)c1 (stereo not drawn)	-10.6
O=C(c1cnc2ccccc2c1)N1CCC2(CCN2c2ncccn2)C1 (stereo not drawn)	2.76
O=C(c1ncccn1)N1C[C@@H]2CN(Cc3cccnc3)CCO[C@@H]2C1	-5.35
O=C(Cc1ccc2c(c1)CCO2)N1CCN(c2ccncc2)CC1	6.77

SMILES	cytotoxicity at 70.5 h [%]
Cc1ncc(CN2CCN(c3ccc4nncn4n3)C(C)C2)s1 (stereo not drawn)	-11.1
CN(Cc1cncnc1)[C@H]1CN(C(=O)c2ccco2)[C@@H]2CCCO[C@@H]21	-10.9
CN(C)c1ccc(NC(=O)NCc2ccccn2)cn1	-13.6
Cc1noc(C(C)N2CCN(c3ccc(C#N)cn3)CC2)n1 (stereo not drawn)	-10.1
CNC1CCN(C2CCN(c3ccc(-c4ccco4)cc3)CC2)CC1	8.23
CC(C)c1nc(S(=O)(=O)N(C)c2cc(F)ccc2F)c[nH]1	-4.89
O=C(CCC(=O)N1CCNC(=O)C1c1cccc(F)c1)NC1CCCC1 (stereo not drawn)	-6.2
O=C1CC2(CCSC2)C(=O)N1Cc1ncc(-c2ccccc2)o1 (stereo not drawn)	-2.34
Cc1c(C(=O)NCC2CCN(C)C2)n(C)c2c(C)cccc12 (stereo not drawn)	-7.34
Cc1nc(CN2C[C@@H]3OCCN(c4ncc(F)cn4)[C@@H]3C2)cs1	-11.3
COc1ccc(C(O)CNC(=O)Nc2cc(C)nn2C)cc1 (stereo not drawn)	25.3
CN(C)CC(=O)N1CC2(CCN(S(=O)(=O)c3ccccc3)C2)C1	-6.71
O=C(NCCc1ccn(-c2ccccc2)n1)N1CCSCC1	22.7
CCc1ccc(CN2CCC3(CC2)CNC(=O)CO3)o1	-3.42
OC(CN1CCN(Cc2nnc(C3CC3)o2)CC1)c1ccccc1 (stereo not drawn)	-20.3
CCc1ccc(-n2c(=O)[nH]c3nc(N4CCSCC4)ncc3c2=O)cc1	-8.65
CS(=O)(=O)N1CCCC12CCCN(C(=O)c1ccnnc1)C2 (stereo not drawn)	-11.3
CNC(=O)c1cn[nH]c1C1CCCN1C(=O)c1cccnc1 (stereo not drawn)	-4.17
NC1(C(=O)NCC2CCCN(Cc3cccc4nonc34)C2)CCC1 (stereo not drawn)	-3.66
CCn1c(C(=O)N2CCN(CC(C)O)CC2)cc2ccccc21 (stereo not drawn)	21.6
COCC(=O)N1CCC2(CC1)c1ccccc1[C@@H](N1CCSCC1)[C@@H]2O	4.64
Cc1occc1C(=O)N1CCCC(C2=Nc3ccccc3S(=O)(=O)N2)C1 (stereo not drawn)	-5.45
CC(C)c1nn(C)c(N(C)C)c1CNCc1cscn1	-5.21

SMILES	cytotoxicity at 70.5 h [%]
Cc1nc2c(c(N[C@H](C(N)=O)C(C)C)n1)Cc1ccccc1OC2	-11.2
CC1c2ncc(Cn3cccn3)n2CCN1S(C)(=O)=O (stereo not drawn)	19.8
O=C(NC1CCC1)c1n[nH]c2c1CNCC2	-8.89
c1cncc(CN2CCC(c3csc4nccn34)CC2)c1	-4.71
COCC(=O)N1CCC2(CCN(Cc3cccnc3)C2)CC1	-7.11
CCN(CC)Cc1nnc2sc(-c3cc(C(C)C)[nH]n3)nn12	-8.88
O=C(c1ncccn1)N1C[C@@H]2COC[C@]2(c2nnc(C3CC3)o2)C1	9.47
Cc1noc(C)c1-c1nc(N(C)CCN(C)C)ncc1-c1cnccn1	-6.02
CN(C)C(=O)CN1CCOCC2(CCN(c3ncc(F)cn3)CC2)C1	-6.93
COc1cccc(CNC2CCc3ccc(C)cc32)n1 (stereo not drawn)	-9.15
CN(C)C(=O)N1CCC2(CCC(C(=O)N3CCCC3)O2)CC1 (stereo not drawn)	-16.3
O=C(NCC1CCCCC1)NC1CCCc2c1cnn2CCO (stereo not drawn)	-7.67
COc1ccc(CNC(C)c2cccc(Br)c2)c(OC)c1OC (stereo not drawn)	17.6
Cc1nonc1C1CCCN1C(=O)c1cn2ccsc2n1 (stereo not drawn)	-13.5
CN1CCCC2(CCN(Cc3cncn3C3CCCCC3)C2)C1=O (stereo not drawn)	-4.94
Cn1cc(C(=O)N2CCCN(c3cccnn3)CC2)c2ccccc21	-0.532
O=C1NCCCc2[nH]c(-c3nc(C4CC4)no3)nc21	-3.92
Cc1nnc(NC(=O)NCCCN2CCC(C(N)=O)CC2)s1	-8.8
CCCC1(CO)CCCN(Cc2nccs2)C1 (stereo not drawn)	-4.2
Cc1cccc(-c2nc(CN(Cc3cccs3)CC3CCCO3)no2)c1 (stereo not drawn)	-1.72
CS(=O)(=O)c1cnc(CC2CC2)nc1C1CCCNC1 (stereo not drawn)	19.7
c1cc(-c2cn[nH]c2)ccc1CN1CCCCC1	13.1
Cc1nc(CN2C[C@@H]3CN(C(=O)c4ccnnc4)C[C@@H]3C2=O)cs1	-3.08

SMILES	cytotoxicity at 70.5 h [%]
COc1cc(CN2CCCC(Nc3cccc(F)c3)C2)cc(Cl)c1O (stereo not drawn)	6.37
CN1CCOC(CNCCOc2ccc(C#N)cc2)C1 (stereo not drawn)	-5.57
O=C1NC[C@@]2(C(=O)O)CN(Cc3cccc(Oc4ccccc4)c3)C[C@@H]12	-4.3
Cc1cc(N[C@H]2CCCC[C@@H]2O)n2nccc2n1	5.62
CC(C)OCC(=O)Nc1ccc(Oc2ccc3c(c2)OCO3)nc1	-5.21
CN1CC[C@]2(CN(CC3CCOCC3)C[C@H]2c2ccccc2)C1=O	-7.31
CN1CCOC(C(=O)Nc2nc(-c3ccc(Cl)cc3)n[nH]2)C1 (stereo not drawn)	4.4
Cc1ccc(S(=O)(=O)N2CCC(c3n[nH]cc3C)C2)cc1 (stereo not drawn)	-1.04
CCS(=O)(=O)N1CCCC2(COCCN(c3nnc(C)o3)C2)C1 (stereo not drawn)	-1.84
CCN(C(=O)NCc1cccnc1N(C)C)C(C)c1cccnc1 (stereo not drawn)	-8.8
CN(c1ccncn1)C1CC2(CCN(C(=O)c3cccs3)C2)C1 (stereo not drawn)	-16.4
CCNC(=O)NC(=O)CNC(C)(CC)c1nccs1 (stereo not drawn)	-1.38
CCOc1ccnc(N2CCN(C(=O)c3ccc(C#N)cc3)CC2)n1	2.75
CC(C(=O)Nc1ncccn1)N1CCCN(c2nccs2)CC1 (stereo not drawn)	-13.8
O=C(CNC1CCc2ncnn2C1)N(C1=CCCCC1)C1CC1 (stereo not drawn)	-2.56
C[S+]([O-])c1nncn1CC(=O)c1cccc(Br)c1 (stereo not drawn)	-3.69
CCCN1CCC2(C1)c1ccccc1S(=O)(=O)N2Cc1ccc(F)cc1 (stereo not drawn)	-1.79
COCC1CN(S(=O)(=O)c2cccc(F)c2)Cc2nccn2C1 (stereo not drawn)	-7.05
CC(O)CN1CCC(CNCc2cccc(Cl)c2)CC1 (stereo not drawn)	12.3
Cc1n[nH]c(C2CN(C(=O)c3cc4c(s3)CCC4)CCO2)n1 (stereo not drawn)	-14.5
Fc1ccc(-c2nc(CN3CCCC3Cn3cncn3)co2)cc1F (stereo not drawn)	17.9
COc1ccc(C(=O)N(C)Cc2nnc3ccccn23)c(OC)c1	-15.7
Cc1ccc(C(=O)N2C[C@H]3CCC[C@@]3(COCC3CCOCC3)C2)o1	-5.19

SMILES	cytotoxicity at 70.5 h [%]
COCCN(CCOC)C(=O)c1cnn(C)c1C	-10.4
CCCS(=O)(=O)CC(=O)NC(C)c1cccc(-n2cccn2)c1 (stereo not drawn)	10.5
CC1Cc2ccccc2N1Cc1occc1C(=O)O (stereo not drawn)	-5.89
CC(=O)N[C@H]1CCN(C(=O)c2cc(Cn3cnc4ccccc43)[nH]n2)C1	-3.6
CC(=O)c1ccc(N2CCC3(CCC(=O)N(C4CC4)C3)CC2)nc1	-1.87
CC1(C)CC(N(Cc2ccccc2)Cc2cccnc2)CC(C)(C)N1	30.7
COc1ccc(OCc2nc3cc4c(cc3c(=O)o2)OCCCO4)cc1	-5.23
c1cnc(NCc2cncc3c2CCN(Cc2cccs2)C3)nc1	-10.8
CCn1ccc(C(=O)N2CCCN(Cc3ccccc3F)CC2)cc1=O	17.5
COCCO[C@H]1CCN(C(=O)NC2CC2)[C@H]1Cc1cnn(C)c1	-123
Cc1ncsc1CNC(=O)N1CCN(Cc2ccccc2)CC1C (stereo not drawn)	-9.74
Cc1cc(Br)ccc1C(=O)N(C)CCNS(C)(=O)=O	-6.05
CCC(=O)N1CCC2(CC1)CN(CCO)Cc1ccccc12	1.97
CCn1ncc2c1C(COCC1CC1)CN(S(=O)(=O)N(C)C)C2 (stereo not drawn)	-7.75
CC(c1nnc(-c2cccs2)o1)N1CCc2cncnc2C1 (stereo not drawn)	-1.71
CC(O)CN1CCN(C(=O)c2ccc3c(c2)COC3)CC1 (stereo not drawn)	22.6
CCn1cnnc1CNC(=O)N(C)Cc1cccc(OC(F)F)c1	-0.632
O=C(CCS(=O)(=O)C1CCCC1)NCCc1ccc2c(c1)OCCO2	-2.36
NC(=O)C1CCN(C(=O)NCc2ccccc2-n2cccn2)CC1	-4.82
CC(C)n1ccc2ccc(C(=O)NC3CN4CCC3CC4)cc21 (stereo not drawn)	-17.1
COc1ccc(-c2nnc(CNCCn3cc(C)cn3)o2)cc1	14.6
